Measurements published in patent US20030228583A1, “Biomarkers of liver response” (priority 2001, published 2003).

Experiments:
[1] = system: Liver Response-Associated Features (LRFs) in liver tissue; test: Proteome analysis (2D electrophoresis, Reference Protocol) of liver tissue of drug-treated vs control animals: relative abundance of LRFs
Text: Samples from animals treated with various drugs at various timepoints and various dose levels can be collected, prepared, and analysed as described herein. […] Using the following procedure, proteins in liver tissue and serum/plasma from 5 control animals and 5 animals having liver response induced through drug treatment were separated by isoelectric focusing followed by SDS-PAGE and analyzed. Samples were taken and analyzed at three different time points designated “early”, “full manifestation” and “late”. Parts 6.1.1 to 6.1.9 (inclusive) of the procedure set forth below are hereby designated as the “Reference Protocol”.
At the time of necropsy, approximately 2 g section of the liver's median lobe was removed to a conical tube and quick-frozen in liquid nitrogen. The frozen liver section was then pulverized for 1 minute using a freezer mill as follows:
Approximately 10-20 mg pulverized liver was solubilized with 10 ul protease inhibitor and 1.5 ml lysis solution and vortexed well. The sample was allowed to remain at room temperature for 10 minutes, was vortexed again, and then pelleted using an Eppendorf 5417R Centrifuge for 10 minutes at 13000g at 15 EC. The resulting supernatant was frozen at −80° C.
The sample was heated at 95° C. for 5 mins, and then allowed to cool to 20° C. 125 μl of the following buffer was then added to the sample:
This mixture was vortexed, and centrifuged at 13000 rpm for 5 mins at 15° C., and the supernatant was analysed by isoelectric focusing. An assay for protein content was carried out on the final sample (Pierce BCA Cat #23225).
Isoelectric focusing (IEF), was performed using the Immobiline® DryStrip Kit (Pharmacia BioTech), following the procedure described in the manufacturer's instructions, see Instructions for Immobilineg DryStrip Kit, Pharmacia, #18-1038-63, Edition AB (incorporated herein by reference in its entirety). Immobilized pH Gradient (IPG) strips (18 cm, pH 3-10 non-linear strips; Pharmacia Cat. #17-1235-01) were rehydrated overnight at 20° C. in a solution of 8M urea, 2% (w/v) CHAPS, 10 mM DTT, 2% (v/v) Resolytes 3.5-10, as described in the Immobiline DryStrip Users Manual. For IEF, 50 μl of supernatant (prepared as above) was loaded onto a strip, with the cup-loading units being placed at the basic end of the strip. The loaded gels were then covered with mineral oil (Pharmacia 17-3335-01) and a voltage was immediately applied to the strips according to the following profile, using a Pharmacia EPS3500XL power supply (Cat 19-3500-01):
After the final 19 hr step, the strips were immediately removed and immersed for 10 mins at 20° C. in a first solution of the following composition: 6M urea; 2% (w/v) DTT; 2% (w/v) SDS; 30% (v/v) glycerol (Fluka 49767); 0.05M Tris/HCl, pH 6.8 (Sigma Cat T-1503). The strips were removed from the first solution and immersed for 10 mins at 20° C. in a second solution of the following composition: 6M urea; 2% (w/v) iodoacetamide (Sigma 1-6125); 2% (w/v) SDS; 30% (v/v) glycerol; 0.05M Tris/HCl, pH 6.8.
A 9-16% linear polyacrylamide gradient was cast, extending up to a point 2 cm below the level of the notch in the front plate, using the Angelique gradient casting system (Large Scale Biology). Stock solutions were as follows. Acrylamide (40% in water) was from Serva (Cat. #10677). […] The gel buffer was 0.375M Tris/HCl, pH 8.8. The polymerization catalyst was 0.05% (v/v) TEMED (BioRad 161-0801), and the initiator was 0.1% (w/v) APS (BioRad 161-0700). No SDS was included in the gel and no stacking gel was used. The cast gels were allowed to polymerize at 20° C. overnight, and then stored at 4° C. in sealed polyethylene bags with 6 ml of gel buffer, and were used within 4 weeks.
A solution of 0.5% (w/v) agarose (Fluka Cat 05075) was prepared in running buffer (0.025 M Tris, 0.198 M glycine (Fluka 50050), 1% (w/v) SDS, supplemented by a trace of bromophenol blue). The agarose suspension was heated to 70° C. with stirring, until the agarose had dissolved.

Male Sprague-Dawley rats = test: Phenobarbital rat toxicity study (clinical observations, body weight, clinical laboratory measurements, organ weights, histopathology)
[2] = final necropsy (twelve days post dose)

Structure (SMILES): CCC1(c2ccccc2)C(=O)NC(=O)NC1=O [phenobarbital]
- Fold Change LRF-24 ([1]; Early, P 0.0075): 3.34 fold
- Fold Change LRF-17 ([1]; Early, P 0.0212): 1.61 fold
- Fold Change LRF-26 ([1]; Early, P 0.0216): 1.33 fold
- Fold Change LRF-37 ([1]; Early, P 0.0254): 3.98 fold
- Fold Change LRF-112 ([1]; Late, P 0.0075): 5.38 fold
- Fold Change LRF-115 ([1]; Late, P 0.0075): 3.16 fold
- Fold Change LRF-85 ([1]; Middle, P 0.0122): 1.72 fold
- Fold Change LRF-60 ([1]; Middle, P 0.0216): 1.67 fold
- Fold Change LRF-80 ([1]; Middle, P 0.0216): 1.40 fold
- Fold Change LRF-90 ([1]; Middle, P 0.0216): 1.47 fold
- Fold Change LRF-66 ([1]; Middle, P 0.0345): 1.93 fold
- Fold Change LRF-74 ([1]; Middle, P 0.0361): 1.42 fold
- Fold Change LRF-83 ([1]; Middle, P 0.0367): 1.40 fold
- Clinical observations (Male Sprague-Dawley rats; 100 mg/kg/day oral gavage, rat): generally well tolerated with no adverse clinical signs observed in any of the control or treated groups other than decreased activity
- Survival (Male Sprague-Dawley rats; 100 mg/kg/day oral gavage, rat): survived
- Gross pathology observations (Male Sprague-Dawley rats; 100 mg/kg/day oral, rat): no treatment-related gross findings
- Creatinine decreased (Male Sprague-Dawley rats; day 2, 100 mg/kg/day oral, rat): 1.7 ×
- Serum/plasma urea nitrogen decreased (Male Sprague-Dawley rats; day 2, 100 mg/kg/day oral, rat): 1.8 ×
- Total protein decreased (Male Sprague-Dawley rats; day 2, 100 mg/kg/day oral, rat): 1.1 ×
- Cholesterol increased (Male Sprague-Dawley rats; day 5, 100 mg/kg/day oral, rat): 1.5 ×
- Glucose decreased (Male Sprague-Dawley rats; day 5, 100 mg/kg/day oral, rat): 1.6 ×
- Serum/plasma urea nitrogen increased (Male Sprague-Dawley rats; day 12, 100 mg/kg/day oral, rat): 1.2 ×
- % reticulocytes (Male Sprague-Dawley rats; days 5 and 12): small but significant decreases
- Group mean body weights vs concurrent controls (Male Sprague-Dawley rats; either interim necropsy): No significant treatment-related changes
- Mean body weight vs concurrent controls (Male Sprague-Dawley rats; final necropsy): significant decrease
- Absolute liver weights (Male Sprague-Dawley rats; [2]): about the same as control
- Relative liver weight increased (Male Sprague-Dawley rats; [2]): about 1.06 × control mean
- Liver weights increased (Male Sprague-Dawley rats; five days post dose): about 1.5 × control mean
- Increased numbers of hepatocytes with apoptotic bodies or mitotic figures, incidence (Male Sprague-Dawley rats; same time point as centrilobular hypertrophy): 3 of 5
- Liver weights increased (Male Sprague-Dawley rats; two days post dose): about 1.1 × control mean
- Centrilobular hypertrophy, incidence (Male Sprague-Dawley rats; two days post dose (so in the source)): 5 of 5
- Group means of the various hematology parameters (except % reticulocytes) (Male Sprague-Dawley rats; vs vehicle control animals): not altered
